In ChEMBL document CHEMBL5385848, “Discovery of novel hydroxyamidine based indoleamine 2,3-dioxygenase 1 (IDO1) and thioredoxin reductase 1 (TrxR1) dual inhibitors” (Eur J Med Chem, 2023) one finds IC50, selectivity ratio and Activity data, which are given here for one compound.

SMILES strings stand for the structures. Active and inactive are the calls of the source. The rule behind the calls is not given here.

For data set [1], the system named is HeLa. Put plainly: Cytotoxicity against human HeLa cells transfected with IDO1 siRNA incubated for 24 hrs by CCK-8 assay (reference value: 9.74 +/- 1.64 uM). In kind it is functional, cell-based.
Another data set deals with IDO1. In words: Selectivity ratio of IC50 for cytotoxicity against human HeLa cells to EC50 for inhibition of IDO1 in human HeLa cells. The following applies: read-out: Ratio IC50/EC50. In kind it is cell-based.
Data set [2] concerns HCT-116. Put plainly: Antitumor activity against human HCT-116 cells xenografted in ig dosed athymic nude BALB/c mouse assessed as tumor growth inhibition administered daily for 28 days and measured every 4 days. In kind it is functional, organism-based. The following applies: dose 15-60 mg/kg, time 28.0 day. (A xenograft is tissue or cells of one species grown in another, often human tumour cells in immunodeficient mice.)

Data set [3] can be described thus: Toxicity in athymic BALB/c mouse xenografted with human HCT-116 cells assessed as change in lung morphology at 15 to 60 mg/kg, ig administered daily for 28 days and measured every 4 days. The class given is organism-based. The following applies: in vivo, po, 672 h, dose 15-60 mg/kg, time 28 day.
Data set [4] has as its system HCT-116. In words: Cytotoxicity against human HCT-116 cells transfected with TrxR1 siRNA incubated for 24 hrs by CCK-8 assay (reference value: 3.49 +/- 0.28 uM). In kind it is functional, cell-based. The conditions noted are these: HCT-116, 24 h. Background: Tetrazolium dyes change colour on reduction, which living cells bring about.
The test system of data set [5] is HCT-116. In words: Cytotoxicity against human HCT-116 cells transfected with IDO1 siRNA incubated for 24 hrs by CCK-8 assay (reference value: 3.49 +/- 0.28 uM). In kind it is functional, cell-based. The following applies: HCT-116, 24 h.
Data set [6] relates to HeLa. In words: Induction of ROS generation in human HeLa cells incubated for 4 hrs by DCFH-DA staining based flow cytometry analysis. The class given is functional, cell-based. The conditions noted are these: dose 2.5-10 µM. Background: In flow cytometry, cells or beads pass a laser one at a time.
In the next data set the test system is CT26. Put plainly: Antitumor activity against mouse CT26 cells implanted in athymic nude BALB/c mouse assessed as reduction in proliferative nTreg lymphocytes at 15 to 60 mg/kg, ig administered daily for 28 days and measured every 4 days by immunofluorescence analysis. In kind it is functional, organism-based. The conditions noted are these: dose 15-60 mg/kg, time 28.0 day.

For `O=C(Cc1ccc(O)cc1)Nc1nnc(CCCNc2nonc2/C(=N\O)Nc2ccc(F)c(Br)c2)s1`, the IC50 in the data set with HeLa [1] was found to be 10.1 µM; with HCT-116 [4], 1.67 µM; in the data set with HCT-116 [5] it was 3.79 µM. The selectivity ratio with IDO1 is 224. Besides, the outcome in the data set on HCT-116 [2] and in the data set with CT26 was Active. In addition, the Activity entry in data set [3] is “Non-Toxic”; in the data set with HeLa [6], “Dose-Dependent Effect”.

By IC50 is commonly meant the midpoint of a concentration-inhibition curve. Low readings indicate higher potency, high ones lower potency.
